Experimental data reported in PubChem BioAssay (NCI).
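Exposure lasted 48 hours, with cells grown in 96-well plates and compounds tested at five concentrations. Abbreviation: GI50, concentration required for 50% inhibition of growth. Definition used: TGI = concentration required for complete inhibition of growth.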

Legend:
Test in all cases: NCI anticancer screen, dose series, 48 h
[1] = tested on: UACC-62 melanoma
[2] = tested on: U251 CNS
[3] = tested on: NCI-H226 lung
[4] = tested on: HL-60(TB) leukemia
[5] = tested on: OVCAR-5 ovarian
[6] = tested on: SF-268 CNS
[7] = tested on: ACHN renal
[8] = tested on: NCI-H522 lung
[9] = tested on: SR leukemia
[10] = tested on: HCT-116 colon
[11] = tested on: MDA-N

SMILES	TGI [1]	TGI [2]	TGI [3]	TGI [4]	TGI [5]	TGI [6]	TGI [7]	TGI [8]	TGI [9]	TGI [10]	TGI [11]	GI50 [1]	GI50 [3]	GI50 [5]	GI50 [7]	GI50 [2]	GI50 [4]	GI50 [6]	GI50 [8]	GI50 [9]
CN(CCO)Cc1ncccc1O	> 100 µM	> 100 µM	> 100 µM	> 100 µM	> 100 µM	> 100 µM	> 100 µM	> 100 µM	> 100 µM	–	–	–	–	–	–	–	–	–	–	–
c1cc(-c2ccc(-c3nc4ccc(C5=NCCN5)cc4s3)s2)ccc1C1=NCCN1	–	0.821 µM	–	2.08 µM	0.327 µM	0.662 µM	1.28 µM	–	1.43 µM	1.35 µM	1 µM	–	–	–	–	–	–	–	–	–
COC(=O)c1c(C)[nH]c2c1C(=O)C(=O)c1nc(C)c(C)nc1-2	18.9 µM	18.4 µM	26.7 µM	29.2 µM	27.6 µM	23.6 µM	47.3 µM	21.4 µM	44.9 µM	18.2 µM	19.9 µM	–	–	–	–	–	–	–	–	–
CN1CC(c2ccccc2)C(O)(C2(c3ccccc3)CN(C)CC(c3ccccc3)C2=O)C(c2ccccc2)C1 (centres undefined)	> 100 µM	> 100 µM	> 100 µM	> 100 µM	> 100 µM	> 100 µM	> 100 µM	> 100 µM	> 100 µM	> 100 µM	> 100 µM	–	–	–	–	–	–	–	–	–
Clc1ccc(C2CC(c3cccc(Nc4ccncc4)c3)=NN2c2ccc(Cl)cc2)cc1 (centres undefined)	3.04 µM	–	38.3 µM	–	2.88 µM	–	3 µM	–	–	–	–	1.66 µM	12.4 µM	1.54 µM	1.64 µM	–	–	–	–	–
CCc1c2cc(OC)c(OC)cc2cc2c3cc(OC)c(OC)cc3cc[n+]12 (tested in a mixture with another compound)	73.8 µM	57.2 µM	39.2 µM	> 96.8 µM	> 100 µM	41.3 µM	> 71.2 µM	34.3 µM	> 57.9 µM	> 53.8 µM	> 36.5 µM	–	–	–	–	–	–	–	–	–
O=C(O)CCO/N=C1/C(c2c(O)[nH]c3ccccc23)=Nc2ccccc21	46.9 µM	> 100 µM	–	62.4 µM	> 100 µM	> 100 µM	> 100 µM	> 100 µM	57.9 µM	34.8 µM	> 100 µM	–	–	–	–	–	–	–	–	–
CC[C@@]1(OC(=O)CN(C)C)C(=O)OCc2c1cc1n(c2=O)Cc2cc3c(N)cccc3nc2-1	0.159 µM	0.249 µM	0.161 µM	10.7 µM	> 100 µM	0.11 µM	0.287 µM	3.36 µM	0.176 µM	–	–	0.0164 µM	0.0233 µM	0.317 µM	0.0286 µM	0.0217 µM	0.0226 µM	< 0.01 µM	0.0744 µM	< 0.01 µM
OC(c1ccc(Cl)cc1)(c1ccc(Cl)cc1)c1cncnc1	30.1 µM	37.8 µM	42.2 µM	–	36.6 µM	–	–	–	> 100 µM	28.6 µM	37.7 µM	–	–	–	–	–	–	–	–	–
CCCCN(CCCC)CCC(O)c1cc(-c2ccc(C(F)(F)F)cc2)nc(-c2ccc(C(F)(F)F)cc2)c1 (centres undefined)	> 100 µM	> 100 µM	–	> 100 µM	> 100 µM	> 100 µM	> 100 µM	> 100 µM	> 100 µM	> 100 µM	> 100 µM	–	–	–	–	–	–	–	–	–
COc1ccc(C(=O)O[C@H]2CC[C@@]3(C)[C@@H]4CC[C@H]5[C@]6(O)C[C@H](O)[C@@]7(O)[C@@H](CN8C[C@@H](C)CC[C@H]8[C@@]7(C)O)[C@]6(O)C[C@@]53OC24O)cc1OC	> 100 µM	> 100 µM	> 100 µM	–	> 100 µM	> 100 µM	> 100 µM	> 100 µM	> 100 µM	> 100 µM	> 100 µM	–	–	–	–	–	–	–	–	–
CN(C)CCCNc1ccc2nnn3c4ccc(OC(=O)c5ccccc5)cc4c(=O)c1c23	29.6 µM	29 µM	–	–	30.4 µM	25.6 µM	16.5 µM	10.5 µM	2.61 µM	24.7 µM	30.1 µM	–	–	–	–	–	–	–	–	–
O=S(=O)(O)c1cc(S(=O)(=O)O)c2cc(N=Nc3c(O)ccc4ccccc34)ccc2c1	> 100 µM	> 100 µM	> 100 µM	> 100 µM	> 100 µM	> 100 µM	> 100 µM	> 100 µM	–	> 100 µM	> 100 µM	–	–	–	–	–	–	–	–	–
CCOC(=O)Nc1sc2c(c1C#N)CC(C)CC2 (centres undefined)	96.4 µM	> 100 µM	35.3 µM	13.1 µM	99.1 µM	96.6 µM	88.5 µM	16.9 µM	18.4 µM	25 µM	–	–	–	–	–	–	–	–	–	–
O=C1CCCC/C1=C1/SC(=Nc2ccccc2)C(=Nc2ccccc2)N1c1ccccc1	> 100 µM	> 100 µM	> 100 µM	> 100 µM	> 100 µM	–	–	> 100 µM	> 100 µM	> 100 µM	> 100 µM	–	–	–	–	–	–	–	–	–
O=C(Nn1c(-c2cccs2)nc2ccc(I)cc2c1=O)c1ccccc1	57.3 µM	73.1 µM	> 100 µM	99.7 µM	> 100 µM	> 100 µM	> 100 µM	59.5 µM	61.4 µM	> 100 µM	> 100 µM	–	–	–	–	–	33.7 µM	–	–	–

SMILES	TGI [1]	TGI [2]	TGI [3]	TGI [4]	TGI [5]	TGI [6]	TGI [7]	TGI [8]	TGI [9]	TGI [10]	TGI [11]	GI50 [1]	GI50 [3]	GI50 [5]	GI50 [7]	GI50 [2]	GI50 [4]	GI50 [6]	GI50 [8]	GI50 [9]
CC1C2CCC3C(O)C2(CC(O)C2(O)C1CC(O)C2(C)C)CC3(C)O (centres undefined)	> 100 µM	> 100 µM	> 100 µM	> 100 µM	> 100 µM	> 100 µM	> 100 µM	> 100 µM	> 100 µM	> 100 µM	> 100 µM	–	–	–	–	–	–	–	–	–
COc1ccc(/C=C2\C[C@H]3[C@@H]4CC=C5C[C@@H](OC(C)=O)CC[C@]5(C)[C@H]4CC[C@]3(C)\C2=N\O)cc1OC	> 100 µM	–	56.5 µM	> 100 µM	> 100 µM	> 100 µM	> 100 µM	> 100 µM	> 100 µM	> 100 µM	> 100 µM	–	–	–	–	–	–	–	–	–
CCC1C(C#N)=C(O)NC(O)=C1C#N	> 100 µM	> 100 µM	> 100 µM	–	> 100 µM	> 100 µM	> 100 µM	> 100 µM	–	> 100 µM	–	–	–	–	–	–	–	–	–	–
O=C1C[C@H](COCc2ccccc2)NC(=O)C[C@H](COCc2ccccc2)NC(=O)C[C@H](COCc2ccccc2)N1	> 100 µM	> 100 µM	> 100 µM	> 100 µM	> 100 µM	> 100 µM	> 100 µM	> 100 µM	> 100 µM	> 100 µM	> 100 µM	–	–	–	–	–	–	–	–	–
COC1CC(OC2CCC3(C)C(=CCC4C3C(OC(C)=O)C(OC(=O)CC(C)C)C3(C)C(C(C)=O)CCC43O)C2)OC(C)C1OC1CC(OC)C(OC2CC(OC)C(OC3OC(C)C(O)C(OC)C3O)C(C)O2)C(C)O1 (centres undefined)	> 100 µM	> 100 µM	89.9 µM	74.5 µM	> 100 µM	> 100 µM	> 100 µM	> 100 µM	62 µM	60.6 µM	> 100 µM	–	–	–	–	–	–	–	–	–
CC[C@H](C)C1=C(OC(C)=O)[N@+]2([O-])Oc3ccc(-c4c(O)c(O)c(-c5ccc(OC(C)=O)cc5)c(OC(C)=O)c4OC(C)=O)cc3O[C@]2([C@@H](C)CC)C(=O)N1O	46.9 µM	> 50 µM	–	> 50 µM	> 50 µM	> 50 µM	> 50 µM	22.2 µM	39.7 µM	19.5 µM	> 50 µM	–	–	–	–	–	–	–	–	–
Nc1c(OCC(=O)O)ccc2cc(S(=O)(=O)O)ccc12	> 100 µM	> 100 µM	> 100 µM	> 100 µM	–	> 100 µM	> 100 µM	> 100 µM	–	> 100 µM	> 100 µM	–	–	–	–	–	–	–	–	–
O=C(O)C(O)(c1ccc(-c2ccccc2)cc1)c1ccc(-c2ccccc2)cc1	36.7 µM	32.7 µM	62.6 µM	49.7 µM	77.8 µM	57.8 µM	94.7 µM	47.5 µM	> 100 µM	62.2 µM	34.5 µM	–	–	–	–	–	–	–	–	–
CO/N=C(/C)c1cccc(Nc2nc3ccc(Cl)cc3c3[nH]c4ccccc4c23)c1	19.8 µM	29.1 µM	27.9 µM	32 µM	23.7 µM	29.5 µM	13.5 µM	13.4 µM	14.6 µM	14.7 µM	24.3 µM	–	–	–	–	–	–	–	–	–
C[C@]12Cc3cnc(-c4ccccc4)nc3C[C@@H]1CC[C@@H]1[C@@H]2CC[C@@]2(C)[C@H]1CC[C@]2(C)O	48.4 µM	41.4 µM	58.1 µM	> 100 µM	63.4 µM	33 µM	> 64.9 µM	31.2 µM	88.5 µM	48.8 µM	48.9 µM	–	–	–	–	–	–	–	–	–
O=C(O)C1OC1C(=O)O (centres undefined)	> 100 µM	> 100 µM	> 100 µM	–	> 100 µM	> 100 µM	> 100 µM	> 100 µM	> 100 µM	> 100 µM	> 100 µM	–	–	–	–	–	–	–	–	–
CC(C)=Cc1cc(C)c2c3c(c(O)c(O)c(C)c13)C(C)=CC2=O	50.8 µM	92 µM	50.9 µM	67 µM	73.3 µM	60.3 µM	56.2 µM	41.2 µM	78.1 µM	37.7 µM	> 100 µM	–	–	–	–	–	–	–	–	–
O=NN1C(c2ccccc2)C2CCCC(C2=O)C1c1ccccc1 (centres undefined)	59 µM	> 84.9 µM	71 µM	44.7 µM	> 100 µM	> 100 µM	–	46.4 µM	–	> 63.1 µM	–	–	–	–	–	–	–	–	–	–
Cc1cn(C2C=CC(COP(=O)(OCc3ccc([N+](=O)[O-])o3)N(C)CCCCCl)O2)c(=O)[nH]c1=O (centres undefined)	17.3 µM	18.2 µM	23.6 µM	32.3 µM	30.9 µM	23.8 µM	28.6 µM	3.97 µM	4.83 µM	20.8 µM	11.8 µM	–	–	–	–	–	–	–	–	–
NC1C=NNC1=O (centres undefined)	> 100 µM	> 100 µM	–	> 100 µM	> 100 µM	> 100 µM	> 100 µM	> 100 µM	–	–	–	–	–	–	–	–	–	–	–	–
CCOC(=O)c1nc2ccccc2n(CC)c1=O	> 100 µM	> 100 µM	> 100 µM	> 100 µM	> 100 µM	> 100 µM	> 100 µM	> 100 µM	> 100 µM	> 100 µM	> 100 µM	–	–	–	–	–	–	–	–	–
